Literature values in patent publication US7429577B2, “Augmentation of atypical antipsychotic agent pharmacotherapy with chromium supplementation” (priority 2002, dated 2008).

How the values were obtained:
[1] = olanzapine treatment of patients
[2] = humans, in particular subjects with plasma cholesterol above the 200 μg/ml level
[3] = healthy volunteers, 200 μg chromium picolinate per day
[4] = obese Caucasian patients with type-II diabetes receiving sulphonylurea and metformin

| Molecule | levels of insulin, leptin, blood lipids; insulin resistance [1] | blood lipids [2] | LDL cholesterol decreased by [3] [%] | fasting blood glucose decreased by [3] [%] | glycosylated hemoglobin decreased by [3] [%] | total cholesterol decreased by [3] [%] | fasting insulin levels and glucose control [4] |
| --- | --- | --- | --- | --- | --- | --- | --- |
| Cc1cc2c(s1)Nc1ccccc1N=C2N1CCN(C)CC1 [olanzapine] | elevated levels of insulin, leptin, and blood lipids, as well as insulin resistance | – | – | – | – | – | – |
| chromium picolinate | – | efficacious in lowering blood lipids | 11 | 24 | 19 | 13 | lowering fasting insulin levels without impairing glucose control |
